Measurements published in PubChem BioAssay (NCI).
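1) Cells in 96-well plates. 2) Compound, 48 h, 5 concentrations. 3) Linear interpolation between surrounding doses. 4) Unreached endpoint = highest concentration. Here, GI50 denotes the concentration required for 50% inhibition of growth. TGI is the concentration that stops growth completely.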

Tests used:
Assay in all cases: inhibition of tumour cell growth, NCI panel, 48 h
U251 CNS = tested on: U251 CNS
MCF7 breast = tested on: MCF7 breast
SF-268 CNS = tested on: SF-268 CNS
MALME-3M melanoma = tested on: MALME-3M melanoma
RPMI-8226 leukemia = tested on: RPMI-8226 leukemia
MOLT-4 leukemia = tested on: MOLT-4 leukemia
IGROV1 ovarian = tested on: IGROV1 ovarian
NCI-H23 lung = tested on: NCI-H23 lung
LOX IMVI melanoma = tested on: LOX IMVI melanoma
K-562 leukemia = tested on: K-562 leukemia

SMILES	TGI (U251 CNS) [µM]	TGI (MCF7 breast) [µM]	TGI (SF-268 CNS) [µM]	TGI (MALME-3M melanoma) [µM]	TGI (RPMI-8226 leukemia) [µM]	TGI (MOLT-4 leukemia) [µM]	TGI (IGROV1 ovarian) [µM]	TGI (NCI-H23 lung) [µM]	TGI (LOX IMVI melanoma) [µM]	TGI (K-562 leukemia) [µM]	GI50 (U251 CNS) [µM]	GI50 (MCF7 breast) [µM]	GI50 (SF-268 CNS) [µM]	GI50 (MALME-3M melanoma) [µM]	GI50 (RPMI-8226 leukemia) [µM]	GI50 (MOLT-4 leukemia) [µM]	GI50 (IGROV1 ovarian) [µM]	GI50 (NCI-H23 lung) [µM]	GI50 (LOX IMVI melanoma) [µM]	GI50 (K-562 leukemia) [µM]
C=CCSSCC=C	> 100	> 100	> 90.5	> 100	> 80.4	> 100	> 100	> 95.9	> 38.6	> 100	–	–	–	–	–	–	–	–	–	–
COc1ccc(NC(=S)N/N=C(\C)c2nc3ncccc3[nH]2)cc1	> 100	21.6	> 100	> 100	> 100	43.9	53.6	> 100	28.7	> 100	–	–	–	–	–	–	–	–	–	–
O=C1OC2CC=CC1C2 (configuration not stated)	> 100	> 100	> 100	> 100	> 100	> 100	> 100	> 100	> 100	> 100	–	–	–	–	–	–	–	–	–	–
CC(C)(C)c1ccc(/C=N/NC(=O)CSCC(=O)N/N=C/c2ccc(C(C)(C)C)cc2)cc1	5.87	6.05	10.9	24.8	> 100	5.02	10.4	6.01	–	6.7	–	–	–	–	–	–	–	–	–	–
O=C(COc1ccc(Cl)c(Cl)c1)N(Cc1ccccc1)Cc1ccc[n+](Cc2ccc(Cl)cc2S(=O)(=O)F)c1	> 100	> 100	> 100	54.2	28.4	54.8	> 100	> 100	–	> 100	–	–	–	–	–	–	–	–	–	–
O=C1CCCC2C3CC(CN12)C1CCCCN1C3 (configuration not stated)	> 100	> 100	> 100	> 100	> 100	> 100	> 100	> 100	> 100	–	–	–	–	–	–	–	–	–	–	–
C=C1C(=O)OC2CC1CCC1(C)OC1CCC(C)=CCCC2(C)O (configuration not stated)	29.2	9.64	14.2	12.2	7.18	9.2	15.8	7.25	8.71	13.7	–	–	–	–	–	–	–	–	–	–
CN1CC(CNC(=O)OCc2ccccc2)CC2c3cccc4c3c(cn4C)CC21 (configuration not stated)	2.91	3.29	13.4	3.14	5.36	5.25	4.49	10.6	3.21	4.44	1.46	1.77	3.48	1.57	2.14	2.36	1.77	2.61	1.64	1.69
Cc1cc(C)nc(SCCc2cccc[n+]2C)n1	> 100	> 100	> 100	> 100	> 100	> 100	> 100	> 100	> 100	> 100	–	–	–	–	–	–	–	–	–	–
CC(=O)NNC(=O)C1CCCCN1 (configuration not stated)	> 100	> 100	> 100	> 100	> 100	> 100	> 100	> 100	> 100	> 100	–	–	–	–	–	–	–	–	–	–
O=C1OCc2cc3cc4c(cc3c(-c3ccc5c(c3)OCO5)c21)OCO4 (tested in a mixture with another compound)	43.7	> 100	–	> 100	> 100	72.5	66.7	> 100	> 100	> 100	–	–	–	–	–	–	–	–	–	–
Cl/C(=C\C=Nc1ccc(I)cc1)c1ccc2ccccc2c1	35	> 87.5	65.4	42	56.5	13.6	> 55.7	31	30.9	31.8	–	–	–	–	–	–	–	–	–	–
CC[C@]12C=CCN3CC[C@@]4(c5cc(Br)c(OC)cc5N(C)[C@H]4[C@@](O)(C(=O)N[C@@H](Cc4ccc(O)cc4)C(=O)OC)[C@@H]1O)[C@@H]32	27.8	> 100	52.4	29.1	36	62.3	73.3	> 100	34.8	> 100	–	–	–	–	–	–	–	–	–	–
COc1c(OC/C=C(\C)CCC=C(C)C)ccc2ccc(=O)oc12	> 100	> 100	> 100	–	> 100	> 100	> 100	> 100	> 100	> 100	–	–	–	–	–	–	–	–	–	–
O=C(Nc1ccc(Cl)c(Cl)c1)N1N=C2c3ccccc3CCC2C1c1ccc(Cl)cc1 (configuration not stated)	> 100	> 100	> 100	> 100	> 100	> 100	> 100	> 100	> 100	> 100	–	–	–	–	–	–	–	–	–	–
COc1cc(/C=C/C(=O)CC(=O)/C=C/c2ccc(O)c(OC)c2)ccc1O	16.5	34.3	36.1	27.4	6.28	18	26.7	31.8	15.5	> 55.6	–	–	–	–	–	–	–	–	–	–
Br/C(=N\Nc1nn[nH]n1)c1ccncc1	> 100	> 100	> 100	> 100	> 100	> 100	> 100	> 100	> 100	> 100	–	–	–	–	–	–	–	–	–	–
c1ccc(C[N+]23CN4CN(CN(C4)C2)C3)cc1	35.6	94.3	85.8	> 100	57.2	43.9	> 100	36.6	48.2	86.2	–	–	–	–	–	–	–	–	–	–
C=CCNS(=O)(=O)c1ncnc2nc[nH]c12	> 100	> 100	–	> 100	> 100	41.2	> 100	> 100	> 100	> 100	–	–	–	–	–	–	–	–	–	–
COc1cc(S(=O)(=O)Nc2nc(-c3ccc(N4C(=O)/C(=C/c5ccccc5[N+](=O)[O-])N=C4c4ccccc4)cc3)cs2)ccc1Cl	> 100	> 100	> 100	> 100	–	> 100	> 100	> 100	> 100	> 100	–	–	–	–	–	–	–	–	–	–
SC1CCCN(Cc2ccccc2)C1 (configuration not stated)	> 100	39.4	> 100	–	46.6	78.2	> 100	81.5	34.7	60.6	–	–	–	–	–	–	–	–	–	–
Cn1c2c3ccc(Cl)cc3nc-2c(Cl)c2ccccc21	> 100	> 100	36.3	34	> 100	> 100	42	36.1	72.3	> 100	–	–	–	–	–	–	–	–	–	–
CCCC(=O)O.CCCC(=O)O.CCCC(=O)O.CCCC(=O)O.[Rh].[Rh]	–	–	–	0.102	0.112	0.141	0.73	–	0.225	0.273	–	–	–	0.0309	0.0243	0.0315	0.189	–	0.104	0.026
CC(C)(C)OC(=O)NC1CCC(C(C)(C)C)CC1 (configuration not stated)	> 100	> 100	> 100	> 93.8	> 100	67.2	> 100	> 100	> 100	> 100	–	–	–	–	–	–	–	–	–	–
O=C(/C=C/c1ccccc1)N1CCCCC1	> 100	> 100	> 100	–	> 100	> 100	> 100	> 100	> 100	> 100	–	–	–	–	–	–	–	–	–	–
O=C(Oc1ccc(Cl)cc1[N+](=O)[O-])c1ccccc1	> 100	–	> 100	> 100	> 100	> 100	> 100	> 100	> 100	> 100	–	–	–	–	–	–	–	–	–	–
